Test [1] deals with TH+ dopaminergic neurons. In words: Tyrosine hydroxylase immunohistochemistry in striatum and substantia nigra, 6OHDA model. Type of test: in vivo, rat. The following applies: % ipsi- vs. contra-lateral TH optical density (FIG. 13b). As to the method: (§1) Pharmacological treatments.
Immunohistochemistry: Under deep anesthesia, animals were perfused transcardially with a rinse of saline, followed by 4% formaldehyde fixative (pH 7.4). Brains were removed immediately, stored in the fixative solution overnight and then in 30% sucrose for 3 days. Brains were frozen-sectioned at 16 μm. Immunohistochemical detection of BrdU and Hes3 was performed with an antigen-retrieval step (sections were boiled in 0.02M citrate, pH 6.0 in a microwave for 5 min, washed 3 times with distilled water, and incubated for 45 min in 2M HCl, at room temperature).
(§2) To investigate the clinical potential of this treatment approach, the compounds were used in an animal model of Parkinson's disease. Adult rats were lesioned by intra-striatal 6-OH-DA (Przedborski, S. et al., Neuroscience 67, 631-47, 1995). After two weeks, a single injection of the compounds was administered in the lateral ventricle ipsilateral to the lesion. Amphetamine-induced rotations were measured bi-weekly throughout the experiment. Thirteen weeks after treatment they were given a single injection of fluorogold in the striatum to label the […] dopaminergic projection.
Immunohistochemistry: Under deep anesthesia, animals were perfused transcardially with a rinse of saline, followed by 4% formaldehyde fixative (pH 7.4). […]

Test [2] concerns STAT3-Ser727. Briefly: STAT3-Ser727 phosphorylation in NSC cultures. Type of test: cell-based, mouse. As to the method:
Cell culture: E13.5 cortical embryonic mouse CNS stem cells were grown as previously described (Johe, et al., Genes Dev 10, 3129-40, 1996). Cells were expanded in serum-free DMEM/F12 medium with N2 supplement and FGF2 (20 ng/ml) for 5 days under 5% oxygen conditions and were re-plated fresh or from frozen stocks at 1,000-10,000 cells per cm^2. FGF2 was included throughout the studies, unless otherwise stated. […] Pharmacological treatments: Unless otherwise stated, the following concentrations were used: Dll4 and Ang-2 (in vitro, 500 ng/ml; in vivo 12.5 μg as a single injection), FGF2 (in vitro, 20 ng/ml), JAK inhibitor (in vitro, 200 nM; in vivo, 250 ng as a single injection), insulin (in vitro, 25 μg/ml; in vivo, 40 μg as a single injection), DAPT (1 μM), Fluorogold (0.5 μg). For the survival assays, compounds were added daily and Notch ligands every 2 days for the duration of the experiment. For the effects of kinase inhibitors on Notch activation, cells were pre-incubated for 1 h prior to Notch activation. […] Activation of the Notch receptor by addition of insulin or Dll4 was inhibited by DAPT, a γ-secretase inhibitor that blocks Notch cleavage. […] Insulin maintained STAT[…]727 phosphorylation levels, and acutely (1-h) induced it following a 16-h insulin withdrawal phase (FIG. 1c). […] Fetal NSCs in culture express Ang-1, and treatment (2 days) with Dll4 maintained it whereas CNTF reduced it. Ang-2 expression was maintained under these conditions. […] Ang-2 induced mTOR and STAT3-S727 phosphorylation, unlike Ang-1 (FIG. 2a). Ang-1, however, induced Akt phosphorylation.

The test system of test [3] is 6-OHDA lesioned rats. Briefly: Amphetamine-induced rotometry in the 6OHDA lesion model of Parkinson's disease. Type of test: in vivo, rat. The following applies: for recovery in rotational bias: single intraventricular injection 2 weeks after lesion, measured over next 13 weeks, n=4-7 (FIG. 13a). As to the method: as §1, §2
Test [4] has as its system adult mouse SVZ cultures. In words: Survival/generation of adult mouse SVZ NSC cultures (colony and cell number). Type of test: cell-based. As to the method:
Cell culture: E13.5 cortical embryonic mouse CNS stem cells were grown as previously described (Johe, et al., Genes Dev 10, 3129-40, 1996). Cells were expanded in serum-free DMEM/F12 medium with N2 supplement and FGF2 (20 ng/ml) for 5 days under 5% oxygen conditions and were re-plated fresh or from frozen stocks at 1,000-10,000 cells per cm^2. FGF2 was included throughout the studies, unless otherwise stated. Adult rat (3-6 months old) or adult mouse (2-4 months old) SVZ NSC cultures were grown in the same medium as the fetal cultures.
Pharmacological treatments: Unless otherwise stated, the following concentrations were used: Dll4 and Ang-2 (in vitro, 500 ng/ml; in vivo 12.5 μg as a single injection), FGF2 (in vitro, 20 ng/ml), JAK inhibitor (in vitro, 200 nM; in vivo, 250 ng as a single injection), insulin (in vitro, 25 μg/ml; in vivo, 40 μg as a single injection), DAPT (1 μM), Fluorogold (0.5 μg). For the survival assays, compounds were added daily and Notch ligands every 2 days for the duration of the experiment. For the effects of kinase inhibitors on Notch activation, cells were pre-incubated for 1 h prior to Notch activation.
Hes3 mRNA is present in fetal NSC cultures under conditions that support their self-renewal but CNTF-induced differentiation (Bonni, A. et al., Science 278, 477-83, 1997; Rajan & McKay, J Neurosci 18, 3620-9, 1998): downregulates Hes3 message (Androutsellis-Theotokis, A. et al., Nature 442, 823-6, 2006). Knockout studies have shown a role of Hes3 in self-renewal (Hatakeyama, J. et al., Development 131, 5539-50, 2004). It was investigated if Hes3 mediates stem cell functions in vitro to assess its use as a functional NSC marker. Fetal (E13.5) cortical tissue was dissociated and magnetic sorting was used to isolate a cell population that expressed AC133, an established marker of NSCs (Uchida, N. et al., Proc Natl Acad Sci USA 97, 14720-5, 2000). Sorted (AC133+) cells expressed Hes3 and Sox2, another established NSC marker (Zappone, M. V. et al., Development 127, 2367-82, 2000). […] To investigate if Hes3 is a mediator of pro-survival signals for NSCs, adult mouse SVZ cultures (which respond strongly to pro-survival signals) were treated with insulin, Dll4, and a combination of the two.

Where [5] appears, read: wild-type adult mouse SVZ cultures.

In the case of “Ang-2: human angiopoietin-2 (623-AN) from R&D; antagonist for angiopoietin-1 at Tie2”, in test [1], the “TH+ signal in the lesioned striatum” value is reported as “increase”. The STAT3-S727 phosphorylation result in test [2] (NSC cultures, 0.5 μg/ml (FIG. 2a)) was “induced”. In test [3], the “recovery in rotational bias” value is “complete and stable recovery”.

Take “Dll4: Notch ligand Delta-like 4; mouse Dll4 (1389-D4) from R&D”: the “colony number and overall cell number” value in test [4] (cells from Hes3 null mice) is on record as “moderate (but significant) benefits”; in test [4] (setting [5]), “great increase”. The “TH+ signal in the lesioned striatum” value in test [1] was “increase”. Further, in test [3] (single intra-ventricular injection 2 weeks after 6-OHDA lesion (FIG. 6a)), the “amphetamine-induced rotations (behavioural recovery)” value was “long-lasting behavioural recovery”. Also, the “recovery in rotational bias” value in test [3] is on record as “partial recovery”.

Turning to “insulin: insulin (Sigma, 19278), growth factor”, the “colony number and overall cell number” value in test [4] (cells from Hes3 null mice) is “moderate (but significant) benefits”; in test [4] (setting [5]) it was “great increase”. Also, the STAT3-Ser727 phosphorylation result in test [2] (acute (1-h) addition following a 16-h insulin withdrawal) is recorded as “induced”. Further, the STAT3-Ser727 phosphorylation levels result in test [2] (continued presence in NSC culture) is recorded as “maintained”.

(Values after patent US20110105393A1, “METHODS FOR PROMOTING STEM CELL PROLIFERATION AND SURVIVAL” (priority 2007, published 2011).)
